# Experimental data: patent US3995021A, “Antigens of 5,5'alkylphenyl barbituric acids and related hydantoin compounds” (Biological Developments, Inc., priority 1975, dated 1976)
# Test system: antibodies raised with the product of Example 1
# Test: Radioimmune assay: cross-reactivity of other barbituric acids (competitive inhibition of tritiated phenobarbital binding to antibody)
# Conditions: at 50% inhibition, 4° C, 2 hours
row,Structure (SMILES),Percent Cross-Reactivity [%]
1,CCC1(CCC(C)C)C(=O)NC(=O)NC1=O [Amobarbital],0.6
2,C=CCC1(C(C)CCC)C(=O)NC(=O)NC1=O (stereo not shown) [Secobarbital],1.8
3,CCCC(C)C1(CC)C(=O)NC(=S)NC1=O (stereo not shown) [Thiopental],0.2
4,CCCC(C)C1(CC)C(=O)NC(=O)NC1=O (stereo not shown) [Pentobarbital],2.2
